In ChEMBL document CHEMBL1671637, “Development, stability, and molecular mechanisms of macrolide resistance in Campylobacter jejuni” (2008):
In brackets after ≈: the same amount, converted by molar mass.

What was measured:
Campylobacter jejuni [1] = assay: Antimicrobial activity against compound-resistant Campylobacter jejuni; assay type: functional
Campylobacter jejuni [2] = assay: Antimicrobial activity against Campylobacter jejuni DC31 harboring 23S rRNA A2074G mutant by agar dilution method; assay type: functional
Campylobacter jejuni [3] = assay: Antimicrobial activity against Campylobacter jejuni JL304 harboring protein L22 with insertion of amino acid TSH at position 98 selected at 4 to 16 times MIC after 3 to 4 days by agar dilution method; assay type: functional
Campylobacter jejuni [4] = assay: Antimicrobial activity against Campylobacter jejuni DC29 by agar dilution method; assay type: functional
Campylobacter jejuni [5] = assay: Antimicrobial activity against Campylobacter jejuni DC23 harboring protein L4 G74D mutant by agar dilution method; assay type: functional
Campylobacter jejuni [6] = assay: Antimicrobial activity against Campylobacter jejuni DC6 infected in 3 days old chicken by agar dilution method; assay type: functional
Campylobacter jejuni [7] = assay: Antimicrobial activity against Campylobacter jejuni JL303 harboring protein L22 with insertion of amino acid TSH at position 98 selected at 4 to 16 times MIC after 3 to 4 days by agar dilution method; assay type: functional
Campylobacter jejuni [8] = assay: Antimicrobial activity against Campylobacter jejuni JL308 harboring protein L22 with insertion of amino acid TSH at position 98 selected at 4 to 16 times MIC after 3 to 4 days by agar dilution method; assay type: functional
Campylobacter jejuni [9] = assay: Antimicrobial activity against tylosin pre-exposed compound-resistant Campylobacter jejuni; assay type: functional
Campylobacter jejuni [10] = assay: Antimicrobial activity against Campylobacter jejuni DC18 harboring protein L4 G74D mutant by agar dilution method; assay type: functional
Campylobacter jejuni [11] = assay: Antimicrobial activity against Campylobacter jejuni JL277 selected at 4 to 16 times MIC after 3 to 4 days by agar dilution method; assay type: functional
Campylobacter jejuni [12] = assay: Antimicrobial activity against Campylobacter jejuni DC17 harboring protein L4 G57D mutant by agar dilution method
Campylobacter jejuni [13] = assay: Antimicrobial activity against Campylobacter jejuni JL279 selected at 4 to 16 times MIC after 3 to 4 days by agar dilution method; assay type: functional
Campylobacter jejuni [14] = assay: Antimicrobial activity against Campylobacter jejuni JL289 harboring 23S rRNA A2074C mutant selected at 4 to 16 times MIC after 3 to 4 days by agar dilution method; assay type: functional
Campylobacter jejuni [15] = assay: Antimicrobial activity against Campylobacter jejuni DC4 by agar dilution method; assay type: functional
Campylobacter jejuni [16] = assay: Antimicrobial activity against Campylobacter jejuni JL302 harboring protein L22 with insertion of amino acid TSH at position 98 selected at 4 to 16 times MIC after 3 to 4 days by agar dilution method; assay type: functional
Campylobacter jejuni [17] = assay: Antimicrobial activity against Campylobacter jejuni DC2 infected in 3 days old chicken by agar dilution method; assay type: functional
Campylobacter jejuni [18] = assay: Antimicrobial activity against Campylobacter jejuni DC24 harboring protein L4 G74D mutant by agar dilution method; assay type: functional
Campylobacter jejuni [19] = assay: Antimicrobial activity against Campylobacter jejuni DC20 harboring protein L4 G74D mutant by agar dilution method; assay type: functional
Campylobacter jejuni [20] = assay: Antimicrobial activity against Campylobacter jejuni DC3 harboring 23S rRNA A2074G mutant by agar dilution method; assay type: functional
Campylobacter jejuni [21] = assay: Antimicrobial activity against Campylobacter jejuni DC9 harboring 23S rRNA A2074G mutant by agar dilution method; assay type: functional
Campylobacter jejuni [22] = assay: Antimicrobial activity against Campylobacter jejuni JL284 selected at 4 to 16 times MIC after 3 to 4 days by agar dilution method; assay type: functional
Campylobacter jejuni [23] = assay: Antimicrobial activity against Campylobacter jejuni JL300 harboring protein L22 with insertion of amino acid TSH at position 98 selected at 4 to 16 times MIC after 3 to 4 days by agar dilution method; assay type: functional
Campylobacter jejuni [24] = assay: Antimicrobial activity against Campylobacter jejuni JL278 selected at 4 to 16 times MIC after 3 to 4 days by agar dilution method; assay type: functional
Campylobacter jejuni [25] = assay: Antimicrobial activity against Campylobacter jejuni JL294 selected at 4 to 16 times MIC after 3 to 4 days by agar dilution method; assay type: functional
Campylobacter jejuni [26] = assay: Antimicrobial activity against Campylobacter jejuni JL286 selected at 4 to 16 times MIC after 3 to 4 days by agar dilution method; assay type: functional
Campylobacter jejuni [27] = assay: Antimicrobial activity against Campylobacter jejuni DC36 harboring protein L4 G74D mutant by agar dilution method; assay type: functional
Campylobacter jejuni [28] = assay: Antimicrobial activity against Campylobacter jejuni DC21 harboring protein L4 G74D mutant by agar dilution method; assay type: functional
Campylobacter jejuni [29] = assay: Antimicrobial activity against Campylobacter jejuni DC10 harboring protein L4 G57D mutant by agar dilution method; assay type: functional
Campylobacter jejuni [30] = assay: Antimicrobial activity against Campylobacter jejuni JL296 selected at 4 to 16 times MIC after 3 to 4 days by agar dilution method; assay type: functional
Campylobacter jejuni [31] = assay: Antimicrobial activity against Campylobacter jejuni DC13 harboring protein L4 G74D mutant by agar dilution method; assay type: functional
Campylobacter jejuni [32] = assay: Antimicrobial activity against Campylobacter jejuni DC15 harboring protein L4 G74D mutant by agar dilution method; assay type: functional
Campylobacter jejuni [33] = assay: Antimicrobial activity against Campylobacter jejuni DC1 by agar dilution method; assay type: functional
Campylobacter jejuni [34] = assay: Antimicrobial activity against Campylobacter jejuni JL305 harboring protein L22 with insertion of amino acid TSH at position 98 selected at 4 to 16 times MIC after 3 to 4 days by agar dilution method; assay type: functional
Campylobacter jejuni [35] = assay: Antimicrobial activity against Campylobacter jejuni DC2 harboring protein L4 G74D mutant by agar dilution method; assay type: functional
Campylobacter jejuni [36] = assay: Antimicrobial activity against Campylobacter jejuni DC39 harboring protein L4 G74D and G57V mutant by agar dilution method; assay type: functional
Campylobacter jejuni [37] = assay: Antimicrobial activity against Campylobacter jejuni DC5 harboring protein L4 G74D mutant by agar dilution method; assay type: functional
Campylobacter jejuni [38] = assay: Antimicrobial activity against Campylobacter jejuni JL291 harboring protein L22 with insertion of amino acid TSH at position 98 selected at 4 to 16 times MIC after 3 to 4 days by agar dilution method; assay type: functional

Work on `CC[C@H]1OC(=O)[C@H](C)[C@@H](O[C@H]2C[C@@](C)(OC)[C@@H](O)[C@H](C)O2)[C@H](C)[C@@H](O[C@@H]2O[C@H](C)C[C@H](N(C)C)[C@H]2O)[C@](C)(O)C[C@@H](C)C(=O)[C@H](C)[C@@H](O)[C@]1(C)O` [ERYTHROMYCIN] yielded an MIC (Campylobacter jejuni [1]) of 8 mg/L (≈ 10.9 µM), an MIC (Campylobacter jejuni [2]) greater than 512 mg/L and an MIC (Campylobacter jejuni [3]) of 256 mg/L (≈ 349 µM). For the same compound, the MIC (Campylobacter jejuni [4]) was 4 mg/L (≈ 5.45 µM), the MIC (Campylobacter jejuni [5]) was 64 mg/L (≈ 87.2 µM) and the MIC (Campylobacter jejuni [6]) was greater than 512 mg/L. The MIC (Campylobacter jejuni [7]) was 256 mg/L (≈ 349 µM), the MIC (Campylobacter jejuni [8]) was 64 mg/L (≈ 87.2 µM) and the MIC (Campylobacter jejuni [9]) was greater than 512 mg/L. It also gave an MIC (Campylobacter jejuni [10]) of 16 mg/L (≈ 21.8 µM), an MIC (Campylobacter jejuni [11]) of 8 mg/L (≈ 10.9 µM) and an MIC (Campylobacter jejuni [12]) of 8 mg/L (≈ 10.9 µM). The MIC (Campylobacter jejuni [13]) was 8 mg/L (≈ 10.9 µM), the MIC (Campylobacter jejuni [14]) was greater than 512 mg/L and the MIC (Campylobacter jejuni [15]) was 8 mg/L (≈ 10.9 µM). For the same compound, the MIC (Campylobacter jejuni [16]) was 512 mg/L (≈ 698 µM), the MIC (Campylobacter jejuni [17]) was 32 mg/L (≈ 43.6 µM) and the MIC (Campylobacter jejuni [18]) was 32 mg/L (≈ 43.6 µM). The MIC (Campylobacter jejuni [19]) was 16 mg/L (≈ 21.8 µM), the MIC (Campylobacter jejuni [20]) was greater than 512 mg/L and the MIC (Campylobacter jejuni [21]) was greater than 512 mg/L. It also gave an MIC (Campylobacter jejuni [22]) of 128 mg/L (≈ 174 µM), an MIC (Campylobacter jejuni [23]) of 128 mg/L (≈ 174 µM) and an MIC (Campylobacter jejuni [24]) of 8 mg/L (≈ 10.9 µM). The MIC (Campylobacter jejuni [25]) was 8 mg/L (≈ 10.9 µM), the MIC (Campylobacter jejuni [26]) was 128 mg/L (≈ 174 µM) and the MIC (Campylobacter jejuni [27]) was 128 mg/L (≈ 174 µM). It also gave an MIC (Campylobacter jejuni [28]) of 32 mg/L (≈ 43.6 µM), an MIC (Campylobacter jejuni [29]) of 16 mg/L (≈ 21.8 µM) and an MIC (Campylobacter jejuni [30]) of 8 mg/L (≈ 10.9 µM). It also gave an MIC (Campylobacter jejuni [31]) of 32 mg/L (≈ 43.6 µM), an MIC (Campylobacter jejuni [32]) of 32 mg/L (≈ 43.6 µM) and an MIC (Campylobacter jejuni [33]) of 8 mg/L (≈ 10.9 µM). It also gave an MIC (Campylobacter jejuni [34]) of 256 mg/L (≈ 349 µM), an MIC (Campylobacter jejuni [35]) of 32 mg/L (≈ 43.6 µM) and an MIC (Campylobacter jejuni [36]) of 256 mg/L (≈ 349 µM). The MIC (Campylobacter jejuni [37]) was 8 mg/L (≈ 10.9 µM) and the MIC (Campylobacter jejuni [38]) was 32 mg/L (≈ 43.6 µM).
